Patent US20210121527A1, “METHODS OF TREATING MINIMAL RESIDUAL CANCER” (ICAHN SCHOOL OF MEDICINE AT MOUNT SINAI, priority 2018, published 2021)
pIC50: −log10 of the molar value.

How the values were obtained:
PERK = biological target: T1, PERK (Homo sapiens, UniProt Q9NZJ5); assay: Cell-based TR-FRET assay of tunicamycin-induced eIF2a phosphorylation in 293 cells
T1 construct: endogenous in cells; host or cells: GripTite 293 cells expressing GFP-eIF2a
T1 sequence (Q9NZJ5 30-1116): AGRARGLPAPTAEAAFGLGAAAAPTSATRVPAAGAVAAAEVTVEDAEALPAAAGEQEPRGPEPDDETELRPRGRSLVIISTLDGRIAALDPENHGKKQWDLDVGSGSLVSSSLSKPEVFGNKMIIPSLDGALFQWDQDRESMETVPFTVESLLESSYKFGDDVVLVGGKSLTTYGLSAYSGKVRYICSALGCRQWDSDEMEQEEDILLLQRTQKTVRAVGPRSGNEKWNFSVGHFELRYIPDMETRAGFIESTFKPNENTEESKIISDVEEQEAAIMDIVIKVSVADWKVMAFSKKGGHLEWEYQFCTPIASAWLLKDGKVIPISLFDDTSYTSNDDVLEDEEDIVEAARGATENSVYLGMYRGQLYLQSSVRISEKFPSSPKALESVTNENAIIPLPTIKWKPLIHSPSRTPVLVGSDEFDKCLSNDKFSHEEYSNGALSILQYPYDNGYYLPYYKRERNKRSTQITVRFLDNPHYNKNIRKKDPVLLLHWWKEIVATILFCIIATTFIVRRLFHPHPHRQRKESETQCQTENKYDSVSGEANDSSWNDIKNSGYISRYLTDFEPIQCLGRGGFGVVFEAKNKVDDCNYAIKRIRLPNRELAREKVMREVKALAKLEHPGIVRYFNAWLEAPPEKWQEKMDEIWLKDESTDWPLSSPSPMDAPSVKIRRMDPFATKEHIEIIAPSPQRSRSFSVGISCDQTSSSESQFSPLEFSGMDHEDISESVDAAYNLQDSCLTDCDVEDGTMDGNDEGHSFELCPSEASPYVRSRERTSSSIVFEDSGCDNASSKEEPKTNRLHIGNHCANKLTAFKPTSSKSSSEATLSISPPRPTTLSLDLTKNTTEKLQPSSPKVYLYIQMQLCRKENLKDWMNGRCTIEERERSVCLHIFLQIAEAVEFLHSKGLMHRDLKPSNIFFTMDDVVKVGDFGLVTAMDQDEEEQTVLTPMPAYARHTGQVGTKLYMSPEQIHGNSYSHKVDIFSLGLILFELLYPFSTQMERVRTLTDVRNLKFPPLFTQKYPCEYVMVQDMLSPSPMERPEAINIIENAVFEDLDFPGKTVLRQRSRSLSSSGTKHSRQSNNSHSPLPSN
Experimental: Cell-based TR-FRET assay: Briefly, GripTite™ 293 cells (Invitrogen) expressing GFP-eIF2a were seeded at 10,000 cells per well in 384-well plates and allowed to attach overnight. Cells were pre-treated with test compounds for 1 hour. Tunicamycin (1 μM) was added to induce PERK activity and the plates were incubated at 37° C. for 2 hours. The culture media was removed and the cells were lysed in buffer consisting of 20 mM Tris-HCl, pH 7.5, 150 mM NaCl, 5 mM EDTA, 1% NP-40, 5 mM NaF, Protease inhibitors (Sigma Cat # P8340), Phosphatase inhibitors (Sigma Cat # P2850), and 2 nM Terbium-labelled anti-phospho-eIF2 antibody (Invitrogen Cat # PM43121). Cell lysates were incubated for 2 hours in the dark at room temperature and fluorescence was monitored in an EnVison® Multilabel reader (PerkinElmer, Waltham, Mass.).

ATF4-Luc activity = assay: ATF4-luc assay, tunicamycin-induced, 293 cells; conditions: Homo sapiens, HEK293; tunicamycin-induced ATF4-Luc activity in 293 cells; read-out: ATF4-luc Cell-based IC50
Experimental: ATF4-luc assay: 293 cells were transduced with an ATF4-luc expressing lentivirus (SABiosciences, Frederick, Md.) and selected in growth medium containing 1 μg/ml puromycin. To determine the effect of compounds on ER stress-induced ATF4 activity, 293-ATF4-luc cells were seeded at 15,000 cells per well in poly-D-Lysine coated 96-well plates and allowed to attach overnight. The cells were then pre-treated with test compounds for 30 minutes. Tunicamycin (2 μM) was added to induce ER stress and the plates were incubated at 37° C. for 6 hours. The culture media was then aspirated and the cells were lysed in passive lysis buffer (Promega Cat # E194A) on a plate shaker for 5 minutes. Luciferase activity was monitored using Luciferase Assay Reagent (Promega Cat # E1501) in a Wallac 1420 Victor2™ Multilabel Counter (PerkinElmer, Waltham, Mass.) and IC50 values were determined from the resulting fitted inhibition curves using un-induced (100% inhibition) and induced (0% inhibition) wells as controls.

GCN2 catalytic domain = biological target: T2, GCN2 catalytic domain (Homo sapiens, UniProt Q9P2K8); assay: GCN2 biochemical TR-FRET kinase assay using purified eIF2a as substrate; conditions: read-out: GCN2 Enzyme IC50
T2 construct: HIS-SUMO-GCN2 catalytic domain (amino acids 584-1019); HIS (N); SUMO (N); made in house; host or cells: E. coli
T2 sequence (Q9P2K8 584-1019): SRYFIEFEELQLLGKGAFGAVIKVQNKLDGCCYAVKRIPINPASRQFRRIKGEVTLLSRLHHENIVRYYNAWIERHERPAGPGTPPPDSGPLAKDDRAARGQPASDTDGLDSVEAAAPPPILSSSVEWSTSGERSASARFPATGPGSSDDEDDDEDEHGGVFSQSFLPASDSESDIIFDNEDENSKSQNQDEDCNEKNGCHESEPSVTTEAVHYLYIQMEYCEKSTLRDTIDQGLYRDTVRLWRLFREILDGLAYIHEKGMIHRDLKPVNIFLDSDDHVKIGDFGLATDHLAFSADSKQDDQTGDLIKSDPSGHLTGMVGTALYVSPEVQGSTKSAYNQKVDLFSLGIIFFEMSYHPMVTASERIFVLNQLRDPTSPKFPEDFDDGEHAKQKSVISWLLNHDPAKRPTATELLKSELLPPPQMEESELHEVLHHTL
Experimental: TR-FRET kinase assays were performed in the absence or presence of inhibitors in a reaction buffer consisting of 50 mM HEPES, pH 7.5, 10 mMMgCl2, 1.0 mM EGTA, and 0.01% Brij-35, and 100-200 nM GFP-eIF2a substrate. […] Following the addition of test compound, the reaction was initiated by addition of enzyme and incubated at room temperature for 45 minutes. The reaction was stopped by addition of EDTA to a final concentration of 10 mM and Terbium-labelled phospho-eIF2α antibody was added at a final concentration of 2 nM and incubated for 90 minutes. The resulting fluorescence was monitored in an EnVison® Multilabel reader (PerkinElmer, Waltham, Mass.). TR-FRET ratios and the resulting IC50 values were determined from the fitted inhibition curves. Biochemical specificity profiling was performed at Cerep (Redmond, Wash.) and DiscoverX (San Diego, Calif.).

| Compound | pIC50 (PERK) | pIC50 (ATF4-Luc activity) | pIC50 (GCN2 catalytic domain) |
| --- | --- | --- | --- |
| Cc1cccc(CC(=O)N2CCc3c2ccc(-c2cn(C)c4ncnc(N)c24)c3F)n1 [GSK2656157, reference compound] | 7.44 | 7.68 | < 3.70 |
| CNC(=O)c1nc(-c2ccc(NC(=O)[C@H](O)c3cc(F)cc(F)c3)cc2C)cnc1N [LY2, 3-amino-6-[4-[[(2R)-2-(3,5-difluorophenyl)-2-hydroxy-acetyl]amino]-2-methyl-phenyl]-N-methyl-pyrazine-2-carboxamide] | 6.93 | 7.25 | 4.97 |
| Cc1cc(NC(=O)[C@H](O)c2cccc(F)c2)ccc1-c1cn(C)c2ncnc(N)c12 [LY3, (2R)-N-[4-(4-amino-7-methyl-pyrrolo[2,3-d]pyrimidin-5-yl)-3-methyl-phenyl]-2-(3-fluorophenyl)-2-hydroxy-acetamide] | 7.59 | 7.80 | 4.79 |
| Cc1cc(NC(=O)[C@H](O)c2cc(F)cc(F)c2)ccc1-c1cnc(N)c(C(=O)NC(C)C)c1 [LY4, 2-amino-5-[4-[[(2R)-2-(3,5-difluorophenyl)-2-hydroxy-acetyl]amino]-2-methyl-phenyl]-N-isopropyl-pyridine-3-carboxamide] | 7.27 | 7.32 | 4.74 |
